Reference: patent publication EP1357114A1, “Substituted pyrimidin-2,4(1H,3H)-diones as inhibitors of Matrix Metalloproteinases (MMP)” (IBFB GmbH Privates Institut für biomedizinische Forschung …, priority 2002, dated 2003)
pKi: −log10 of the molar value.

Key:
Test in all cases: Quantitative fluorescence assay for matrix metalloproteinases (cleavage of Mca-Pro-Leu-Gly-Leu-Dpa-Ala-Arg-NH2)
Type in all cases: biochemical
MMP-9 = molecular target: T1, MMP-9 (Homo sapiens, UniProt P14780)
T1 construct: Das latente Enzym wird durch 30 - 60 min; Inkubation bei 37°C mit 1/100 Vol. Trypsin (10 mg/ml) aktiviert; from tissue; host or cells: human buffy coat (blood leukocytes)
Procedure: Native MMP-9 wurde reproduzierbar und in guter Ausbeute und Reinheit aus humanem Buffy Coat gewonnen. Hierzu wird Buffy Coat mit 10% (v/v) Triton X-100 auf eine Endkonzentration von 0,4% gebracht, 30 min. auf Eis geschüttelt und dann 1 Vol. 2-fach Bindungspuffer (40 mM Tris-HCI pH 7,5, 10 mM CaCl2, 1 M NaCI, 0,2% (v/v) Triton X-100) hinzugefügt und weitere 30 min. auf Eis geschüttelt. Die Lösung wird 15 min. bei 16 000 Upm an einem SS-34 Rotor bei 4°C abzentrifugiert und über Glaswolle filtriert. Das Filtrat wird mit Gelatine-Agarose, welche mit Bindungspuffer äquilibriert wurde, gebatcht und 1 Std. auf Eis geschüttelt. Die beladene Gelatine-Agarose wird in eine Säule überführt und mit mindestens 10 Vol. Bindungspuffer proteinfrei gespült. Die Elution der gebundenen MMP-9 erfolgt mit 2 Gelvolumen Bindungspuffer plus 5% (v/v) DMSO. Das Eluat kann zum Puffer-Austausch und gleichzeitiger Abtrennung geringer Verunreinigungen an MMP-2 über eine Gelfiltration an Sephadex G-75 aufgetrennt werden. Hierzu wird der Puffer I (20 mM Tris-HCI pH 7,5, 5 mM CaCl2, 100 mM NaCI, 0,1% (v/v) Triton X-100) verwendet. Das so gewonnene Eluat enthällt MMP-9 in den drei bekannten Zustandsformen: Monomer, Homodimer, Heterodimer. Die Reinheit des Enzyms beträgt ca. 90%, wobei die restlichen Fremdproteine Fibronektin und äußerst geringe Mengen an TIMP's sind. Das latente Enzym wird durch 30 - 60 min. Inkubation bei 37°C mit 1/100 Vol. Trypsin (10 mg/ml) aktiviert. Trypsin wird durch Zugabe von 1 mM PMSF oder mit einem spezifischen Inhibitor (TKI) gehemmt.
(§1) Durch enzymatische Spaltung des synthetischen Substrates Mca-Pro-Leu-Gly-Leu-Dpa-Ala-Arg-NH2 durch die jeweilige Kollagenase, wird die fluoreszente Gruppe Mca ((7-Methoxycoumarin-4-yl)acetyl) vom internen Quencher Dpa ((N-3-(2,4-dinitrophenyl)-L-2,3-diaminopropienyl) getrennt. Dabei erfolgt eine starke Zunahme der Fluoreszenz im Messansatz, die am Fluorimeter quantifiziert werden kann (λex 328 nm, λem 393 nm) und innerhalb der ersten Minuten linear verläuft. Eine gewisse Spezifität des Tests für Matrix-Metalloproteinasen ergibt sich einerseits aus der Aminosäuresequenz -Pro-Leu-Gly-Leu- im Substrat und andererseits durch die gewählten Inkubationsbedingungen. Matrix-Metalloproteinasen spalten das Substrat an der Bindung Gly-Leu. Gemessen wird die proteolytische Restaktivität vorinkubierter Ansätze von Enzym und Inhibitor, wobei die Substrat- und Enzymkonzentration konstant gehalten und die Inhibitorkonzentration variiert wurde. Es wurden für jeden getesteten Inhibitor drei Messreihen mit unterschiedlicher Substratkonzentration aufgenommen. Aus der zeitabhängigen Fluoreszenzzunahme wird die Enzymaktivität in Fluoreszenzeinheiten pro min berechnet. Die Bestimmung der Ki-Werte erfolgte graphisch nach der Methode von DIXON (1953) durch Auftragung der reziproken Reaktionsgeschwindigkeit 1/v (y-Achse) gegen Inhibitorkonzentration (x-Achse).
(§2) 1984 µl Messpuffer (100mM Tris-HCI pH 7,5, 100 mM NaCI, 10 mM CaCl2, 0,05% Brij 35 bzw. 50 mM MES-NaOH, pH 6.0, 10 mM CaCl2, 100 mM NaCI, 0.05% Brij 35 im Fall der KaDo MMP-3) 2 µl Inhibitor, gelöst in DMSO, bzw. DMSO allein (nichtinhibierender Ansatz) 4 µl Enzym • 5 min. Vorinkubation des Enzym-Inhibitor-Gemischs bei Raumtemperatur unter Rühren • Start der Reaktion mit 10 µl Substrat gelöst in DMSO • Aufzeichnung der zeitabhängigen Fluoreszenzzunahme über 2 - 10 min.

[1] = molecular target: T2, katalytische Domäne der MMP-8 (Homo sapiens, UniProt P22894)
T2 construct: dass wir statt des Gesamtenzyms nur dessen enzymatisch aktive katalytische Domäne in E. coli klonierten; made in house; host or cells: E. coli
Source text: Die Nutzung der katalytischen Domäne der MMP-8 als weiteres Testenzym wurde deshalb gewählt, weil es eine hohe Stabilität besitzt und darüber hinaus als aktives Enzym vorliegt. Es muß deshalb nicht aktiviert werden, was eine der häufigsten Fehlerursachen darstellt, da die zur Aktivierung genutzten Quecksilberverbindungen häufig mit dem Testsystem bzw. dem Enzym interferieren und dadurch die Messergebnisse verfälschen werden. Die Klonierungsstrategie gestalteten wir so, dass wir statt des Gesamtenzyms nur dessen enzymatisch aktive katalytische Domäne in E. coli klonierten. Mit der konstruierten katalytischen Domäne der MMP-8 erzielten wir ein stabiles, enzymatisch aktives und hochreines Enzym, welches für die Routineuntersuchungen der inhibitorischen Aktivität der synthetisierten Inhibitoren sehr gut geeignet war und die Messergebnisse der einzelnen Messserien miteinander vergleichbar machte. Die Klonierung und Expression der katalytischen Domäne der MMP-8 wurde entsprechend den Angaben von SCHNIERER et al. (Schnierer S, Kleine T, Gote T, Hillemann A, Knäuper V, Tschesche H: The recombinant catalytic domain of human neutrophil collagenase lacks type I collagen substrate specificity. Biochem Biophys Res Comm (1993) vol. 191 No. 2, 319-326) durchgeführt.
as §1, §2

[2] = molecular target: T3, katalytische Domäne der MMP-3 (Homo sapiens, UniProt P08254); details: for pKi: Dixon plot
T3 construct: Die katalytische Domäne der humanen MMP-3 wurde nach den Angaben in folgender Publikation kloniert; made in house
Procedure: Die katalytische Domäne der humanen MMP-3 wurde nach den Angaben in folgender Publikation kloniert: Ye Q-Z, Johnson LL, Hupe DJ, Baragi V: Purification and Characterization of the Human Stromelysin Catalytic Domain Expressed in Escherichia coli. Biochemistry (1992), 31, 11231-11235). Nach Rückfaltung des Enzyms und Gelfiltration an Sephadex G-50 (Laufpuffer 100 mM Tris-HCI pH 7,5, 10 mM CaCl2, 100 mM NaCI, 0,05% Brij 35) erhielten wir ein zu 95% reines Präparat.
as §1, §2

T1 sequence (P14780 107-707 limits assumed): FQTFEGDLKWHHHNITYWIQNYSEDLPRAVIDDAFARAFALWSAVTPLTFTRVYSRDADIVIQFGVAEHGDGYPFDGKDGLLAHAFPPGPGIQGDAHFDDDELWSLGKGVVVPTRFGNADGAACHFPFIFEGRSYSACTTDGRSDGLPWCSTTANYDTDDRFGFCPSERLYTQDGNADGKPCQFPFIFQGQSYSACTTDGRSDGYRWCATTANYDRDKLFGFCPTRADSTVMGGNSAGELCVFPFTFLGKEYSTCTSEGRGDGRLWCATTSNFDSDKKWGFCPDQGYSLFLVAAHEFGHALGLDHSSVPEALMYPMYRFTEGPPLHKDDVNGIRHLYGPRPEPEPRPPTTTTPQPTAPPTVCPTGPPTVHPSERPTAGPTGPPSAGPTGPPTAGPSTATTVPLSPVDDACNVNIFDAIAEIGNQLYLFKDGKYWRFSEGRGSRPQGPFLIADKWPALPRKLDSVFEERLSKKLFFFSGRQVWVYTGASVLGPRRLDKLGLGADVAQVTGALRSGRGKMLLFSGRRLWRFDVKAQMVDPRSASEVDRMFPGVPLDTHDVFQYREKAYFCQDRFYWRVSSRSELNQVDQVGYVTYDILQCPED
T3 sequence (P08254 100-272 limits assumed): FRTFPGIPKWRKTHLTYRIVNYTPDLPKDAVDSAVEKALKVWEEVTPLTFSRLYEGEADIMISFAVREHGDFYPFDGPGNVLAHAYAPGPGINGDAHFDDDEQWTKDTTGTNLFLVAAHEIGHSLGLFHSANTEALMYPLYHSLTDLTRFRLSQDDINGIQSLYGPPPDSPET
T2 sequence (P22894 100-262 limits assumed): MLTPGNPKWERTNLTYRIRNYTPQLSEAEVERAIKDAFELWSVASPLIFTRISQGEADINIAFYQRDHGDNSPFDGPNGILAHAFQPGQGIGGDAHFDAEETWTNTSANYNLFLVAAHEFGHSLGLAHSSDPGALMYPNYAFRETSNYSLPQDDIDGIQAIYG

Row | MMP-9 Hemmung (MMP-9; bei 10 µM) [% Hemmung bei 10 µM] | MMP-8 Hemmung ([1]; bei 10 µM) [% Hemmung bei 10 µM] | MMP-3 Hemmung ([2]; bei 10 µM) [% Hemmung bei 10 µM] | Structure (SMILES) | also measured
1 | 70 | 70 | 70 | O=c1[nH]c2ccccc2c(=O)n1CC(S)CS (racemic) [Beispiel 1, (R,S)-3-(2,3-Dimercaptopropyl)chinazolin-2,4-(1H,3H)dion] | 
2 | 83 | 87 | 97 | O=c1[nH]c2cc(Cl)ccc2c(=O)n1CC(S)CS (racemic) [Beispiel 3, (R,S)-7-Chlor-3-(2,3-dimercaptopropyl)chinazolin-2,4-(1H,3H)dion] | 
3 | 50 | 60 | 15 | O=c1[nH]c2ccc(Cl)cc2c(=O)n1CC(S)CS (racemic) [Beispiel 4, (R,S)-6-Chlor-3-(2,3-dimercaptopropyl)chinazolin-2,4-(1H,3H)dion] | 
4 | 70 | 70 | 90 | Cc1cccc2[nH]c(=O)n(CC(S)CS)c(=O)c12 (racemic) [Beispiel 5, (R,S)-3-(2,3-Dimercaptopropyl)-5-methyl-chinazolin-2,4-(1H,3H)dion] | 
5 |  |  |  | COc1cc2[nH]c(=O)n(CC(S)CS)c(=O)c2cc1OC (racemic) [Beispiel 7, (R,S)-3-(2,3-Dimercaptopropyl)-6,7-dimethoxy-chinazolin-2,4-(1H,3H)dion] | MMP-9 Hemmung (MMP-9; bei 1 µM): 20% Hemmung bei 1 µM; MMP-8 Hemmung ([1]; bei 1 µM): 20% Hemmung bei 1 µM; pKi [2]: 6.00
6 |  |  |  | O=C(NCc1ccccc1)c1ccc2c(=O)n(CC(S)CS)c(=O)[nH]c2c1 (racemic) [Beispiel 8, (R,S)-N-Benzyl-3-(2,3-dimercaptopropyl)-2,4-dioxo-1,2,3,4-tetrahydrochinazolin-7-carboxamide] | MMP-9 Hemmung (MMP-9; bei 5 µM): 30% Hemmung bei 5 µM; MMP-8 Hemmung ([1]; bei 5 µM): 30% Hemmung bei 5 µM; MMP-3 Hemmung ([2]; bei 5 µM): 30% Hemmung bei 5 µM
7 |  |  |  | O=c1[nH]c2ccsc2c(=O)n1CC(S)CS (racemic) [Beispiel 9, (R,S)-3-(2,3-Dimercaptopropyl)thieno[3,2-d]pyrimidin-2,4(1H,3H)-dion] | MMP-9 Hemmung (MMP-9; bei 2,5 µM): 50% Hemmung bei 2,5 µM; MMP-8 Hemmung ([1]; bei 2,5 µM): 50% Hemmung bei 2,5 µM; pKi [2]: 6.60
8 | 68 | 39 | 55 | O=c1[nH]c2sc3c(c2c(=O)n1CC(S)CS)CCCC3 (racemic) [Beispiel 10, (R,S)-3-(2,3-Dimercaptopropyl)-5,6,7,8-tetrahydro[1]benzothieno[2,3-d]pyrimidin-2,4(1H,3H)-dion] | 
9 |  |  |  | O=c1[nH]c2sc(-c3ccccc3)cc2c(=O)n1CC(S)CS (racemic) [Beispiel 11, (R,S)-3-(2,3-Dimercaptopropyl)-6-phenylthieno[2,3-d]pyrimidin-2,4(1H,3H)-dion] | MMP-9 Hemmung (MMP-9; bei 1 µM): 15% Hemmung bei 1 µM; MMP-8 Hemmung ([1]; bei 1 µM): 30% Hemmung bei 1 µM; MMP-3 Hemmung ([2]; result in words, concentration not given): Keine Hemmung
